Measured values taken from PubChem BioAssay (NCI).
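These data come from cells grown in 96-well plates and exposed to compound for 48 hours at five concentrations. Here, GI50 denotes the concentration required for 50% inhibition of growth. TGI marks complete inhibition of growth.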

Key:
Assay in all cases: NCI tumour cell line growth inhibition, 48 h
ACHN renal = test system: ACHN renal
CAKI-1 renal = test system: CAKI-1 renal
CCRF-CEM leukemia = test system: CCRF-CEM leukemia
HCC-2998 colon = test system: HCC-2998 colon
HCT-15 colon = test system: HCT-15 colon
HOP-62 NSCLC = test system: HOP-62 NSCLC
K-562 leukemia = test system: K-562 leukemia
OVCAR-5 ovarian = test system: OVCAR-5 ovarian
SR leukemia = test system: SR leukemia
UO-31 renal = test system: UO-31 renal

COC(=O)C1Cc2cc3c(cc2C1)CCC3
TGI (ACHN renal): > 100 µM | TGI (CAKI-1 renal): > 100 µM | TGI (CCRF-CEM leukemia): > 100 µM | TGI (HCC-2998 colon): > 100 µM | TGI (HCT-15 colon): > 100 µM | TGI (HOP-62 NSCLC): > 100 µM | TGI (K-562 leukemia): > 100 µM | TGI (OVCAR-5 ovarian): > 100 µM | TGI (SR leukemia): > 100 µM | TGI (UO-31 renal): > 100 µM

CCOC(=O)CC1Nc2ccccc2C12CCc1c([nH]c3ccccc13)C2C(=O)OCC (stereo not given)
TGI (ACHN renal): > 100 µM | TGI (CAKI-1 renal): > 100 µM | TGI (CCRF-CEM leukemia): > 100 µM | TGI (HCC-2998 colon): > 100 µM | TGI (HCT-15 colon): > 100 µM | TGI (HOP-62 NSCLC): > 100 µM | TGI (K-562 leukemia): > 100 µM | TGI (OVCAR-5 ovarian): > 100 µM | TGI (SR leukemia): > 100 µM | TGI (UO-31 renal): > 100 µM

O=C(O)c1ccc(Nc2cnc3cc(C(F)(F)F)ccc3n2)cc1
TGI (ACHN renal): > 100 µM | TGI (CAKI-1 renal): > 100 µM | TGI (CCRF-CEM leukemia): > 100 µM | TGI (HCC-2998 colon): 80.7 µM | TGI (HCT-15 colon): 83.5 µM | TGI (HOP-62 NSCLC): > 100 µM | TGI (K-562 leukemia): > 100 µM | TGI (OVCAR-5 ovarian): > 100 µM | TGI (SR leukemia): > 100 µM | TGI (UO-31 renal): > 100 µM

Cn1c(=O)cc(Nc2ccc(N)cc2)[nH]c1=O
TGI (ACHN renal): > 100 µM | TGI (CAKI-1 renal): > 100 µM | TGI (CCRF-CEM leukemia): > 100 µM | TGI (HCC-2998 colon): > 100 µM | TGI (HCT-15 colon): > 100 µM | TGI (HOP-62 NSCLC): > 100 µM | TGI (K-562 leukemia): > 100 µM | TGI (OVCAR-5 ovarian): > 100 µM | TGI (SR leukemia): > 100 µM | TGI (UO-31 renal): > 100 µM

NS(=O)(=O)c1ccc(NC(=O)c2ccc3nc4ccccc4c(Nc4ccc(S(N)(=O)=O)cc4)c3c2)cc1
TGI (ACHN renal): > 100 µM | TGI (CAKI-1 renal): > 100 µM | TGI (CCRF-CEM leukemia): > 100 µM | TGI (HCC-2998 colon): > 100 µM | TGI (HCT-15 colon): > 100 µM | TGI (HOP-62 NSCLC): > 100 µM | TGI (K-562 leukemia): > 100 µM | TGI (OVCAR-5 ovarian): > 100 µM | TGI (SR leukemia): > 100 µM | TGI (UO-31 renal): > 100 µM

C#CCNC(=O)CC[C@@H](C)[C@H]1CC[C@H]2[C@@H]3CC[C@@H]4CC(=O)CC[C@]4(C)[C@H]3CC[C@]12C
GI50 (ACHN renal): 14.9 µM | TGI (ACHN renal): 32.4 µM | GI50 (CAKI-1 renal): 12.8 µM | TGI (CAKI-1 renal): 29.2 µM | GI50 (CCRF-CEM leukemia): 4.39 µM | TGI (CCRF-CEM leukemia): 24.1 µM | GI50 (HCC-2998 colon): 19.7 µM | TGI (HCC-2998 colon): 54.1 µM | GI50 (HCT-15 colon): 12.1 µM | TGI (HCT-15 colon): 36.3 µM | GI50 (HOP-62 NSCLC): 16.6 µM | TGI (HOP-62 NSCLC): 40.4 µM | GI50 (K-562 leukemia): 5.19 µM | TGI (K-562 leukemia): 44.3 µM | GI50 (OVCAR-5 ovarian): 22.1 µM | TGI (OVCAR-5 ovarian): 47.1 µM | GI50 (SR leukemia): 3.17 µM | TGI (SR leukemia): 33.3 µM | GI50 (UO-31 renal): 0.192 µM | TGI (UO-31 renal): 0.424 µM

CCCCCCc1cc2cc(C(=O)Nc3cccc(F)c3)c(=N)oc2cc1O
TGI (ACHN renal): > 100 µM | TGI (CAKI-1 renal): 10.2 µM | TGI (CCRF-CEM leukemia): 4.97 µM | TGI (HCC-2998 colon): 11.6 µM | TGI (HCT-15 colon): 5.87 µM | TGI (HOP-62 NSCLC): 17.7 µM | TGI (K-562 leukemia): 10.5 µM | TGI (OVCAR-5 ovarian): 48.6 µM | TGI (SR leukemia): 6.29 µM | TGI (UO-31 renal): 12.4 µM

c1ccc2c(c1)-c1ccccc1C2NC1=NCCO1
TGI (ACHN renal): > 100 µM | TGI (CAKI-1 renal): 80.9 µM | TGI (CCRF-CEM leukemia): > 100 µM | TGI (HCC-2998 colon): 33.3 µM | TGI (HCT-15 colon): 21.3 µM | TGI (HOP-62 NSCLC): 46.5 µM | TGI (K-562 leukemia): > 100 µM | TGI (OVCAR-5 ovarian): > 100 µM | TGI (SR leukemia): 79.3 µM | TGI (UO-31 renal): 50.7 µM

N=c1oc2cc(O)ccc2cc1C(=O)Nc1cccc2ccccc12
TGI (ACHN renal): 15.9 µM | TGI (CAKI-1 renal): 24.8 µM | TGI (CCRF-CEM leukemia): > 20.4 µM | TGI (HCC-2998 colon): 12.9 µM | TGI (HCT-15 colon): 11.5 µM | TGI (HOP-62 NSCLC): > 44 µM | TGI (K-562 leukemia): > 42.7 µM | TGI (OVCAR-5 ovarian): 36.3 µM | TGI (SR leukemia): 7.83 µM | TGI (UO-31 renal): 19.9 µM

O=C1OC(c2ccccc2Br)=N/C1=C/c1ccccc1
TGI (ACHN renal): 77.5 µM | TGI (CAKI-1 renal): > 100 µM | TGI (CCRF-CEM leukemia): > 100 µM | TGI (HCC-2998 colon): 39.4 µM | TGI (HCT-15 colon): > 100 µM | TGI (HOP-62 NSCLC): 49.4 µM | TGI (K-562 leukemia): > 100 µM | TGI (OVCAR-5 ovarian): > 100 µM | TGI (SR leukemia): > 100 µM | TGI (UO-31 renal): > 100 µM

O=C(NC(OCc1ccccc1)(C(F)(F)F)C(F)(F)F)OCc1ccccc1
TGI (ACHN renal): 29.2 µM | TGI (CAKI-1 renal): 27.5 µM | TGI (CCRF-CEM leukemia): 34.9 µM | TGI (HCC-2998 colon): 28.8 µM | TGI (HCT-15 colon): 26.7 µM | TGI (HOP-62 NSCLC): 28.4 µM | TGI (K-562 leukemia): 36.8 µM | TGI (OVCAR-5 ovarian): 27.4 µM | TGI (SR leukemia): 26.8 µM | TGI (UO-31 renal): 23.3 µM

O[C@@]12Cc3c([nH]c4ccccc34)[C@@H]3Oc4c(-c5ccccc5)ccc5c4[C@@]31CCN(CC1CC1)[C@@H]2C5
TGI (ACHN renal): 2.75 µM | TGI (CAKI-1 renal): 11.1 µM | TGI (CCRF-CEM leukemia): 7.56 µM | TGI (HCC-2998 colon): 2.92 µM | TGI (HCT-15 colon): 4.06 µM | TGI (HOP-62 NSCLC): 3.06 µM | TGI (K-562 leukemia): 7.56 µM | TGI (OVCAR-5 ovarian): 15.1 µM | TGI (SR leukemia): > 100 µM | TGI (UO-31 renal): 3.11 µM

CN(Cc1cnc2nc(N)nc(N)c2n1)c1ccc(C(=O)NCCCC(=O)O)cc1
TGI (ACHN renal): > 71.2 µM | TGI (CAKI-1 renal): > 100 µM | TGI (CCRF-CEM leukemia): > 100 µM | TGI (HCC-2998 colon): > 100 µM | TGI (HCT-15 colon): > 100 µM | TGI (HOP-62 NSCLC): > 100 µM | TGI (K-562 leukemia): > 100 µM | TGI (OVCAR-5 ovarian): > 100 µM | TGI (SR leukemia): > 100 µM | TGI (UO-31 renal): > 100 µM

NC1NCCC(=O)N1CCc1c[nH]c2ccccc12 (stereo not given)
TGI (ACHN renal): 55.5 µM | TGI (CAKI-1 renal): 94.4 µM | TGI (CCRF-CEM leukemia): 51.9 µM | TGI (HCC-2998 colon): 35.2 µM | TGI (HCT-15 colon): 65 µM | TGI (HOP-62 NSCLC): 43.2 µM | TGI (K-562 leukemia): 51 µM | TGI (OVCAR-5 ovarian): 69.3 µM | TGI (SR leukemia): 57.7 µM | TGI (UO-31 renal): > 100 µM

CN(/N=C/C=N/N(C)C1=NCCN1)C1=NCCN1
TGI (ACHN renal): > 100 µM | TGI (CAKI-1 renal): > 100 µM | TGI (CCRF-CEM leukemia): > 100 µM | TGI (HCC-2998 colon): > 100 µM | TGI (HCT-15 colon): > 100 µM | TGI (HOP-62 NSCLC): > 100 µM | TGI (K-562 leukemia): > 100 µM | TGI (OVCAR-5 ovarian): > 100 µM | TGI (SR leukemia): > 100 µM | TGI (UO-31 renal): > 100 µM

CCCCCCCCCCCCc1ccsc1-c1ccc(-c2ccc(-c3sccc3CCCCCCCCCCCC)s2)s1
TGI (ACHN renal): > 100 µM | TGI (CAKI-1 renal): > 100 µM | TGI (CCRF-CEM leukemia): > 100 µM | TGI (HCC-2998 colon): > 100 µM | TGI (HCT-15 colon): > 100 µM | TGI (HOP-62 NSCLC): > 100 µM | TGI (K-562 leukemia): > 100 µM | TGI (OVCAR-5 ovarian): > 100 µM | TGI (SR leukemia): > 100 µM | TGI (UO-31 renal): > 100 µM

COc1ccc2nc3cc(Cl)ccc3c(NCCCCCC(=O)NC(COc3ccc4ccc5cccnc5c4n3)COc3ccc4ccc5cccnc5c4n3)c2c1
TGI (ACHN renal): 28.9 µM | TGI (CAKI-1 renal): 95.5 µM | TGI (CCRF-CEM leukemia): 10.5 µM | TGI (HCC-2998 colon): 28.1 µM | TGI (HCT-15 colon): > 100 µM | TGI (HOP-62 NSCLC): > 100 µM | TGI (K-562 leukemia): 26.3 µM | TGI (OVCAR-5 ovarian): 47.9 µM | TGI (SR leukemia): 12.3 µM | TGI (UO-31 renal): 10.7 µM

C[C@@H](c1ccccc1)N1CO[C@@]2(C#Cc3ccc4c(c3)OCO4)CCC[C@@H]12
TGI (ACHN renal): > 100 µM | TGI (CAKI-1 renal): 34.6 µM | TGI (CCRF-CEM leukemia): > 100 µM | TGI (HCC-2998 colon): 34.7 µM | TGI (HCT-15 colon): 27.4 µM | TGI (HOP-62 NSCLC): 29.3 µM | TGI (K-562 leukemia): 96.2 µM | TGI (OVCAR-5 ovarian): 32 µM | TGI (SR leukemia): 32.5 µM | TGI (UO-31 renal): 28.1 µM
